Data published in patent publication US20250345426A1, “METHODS FOR MAKING AND USING THERAPEUTIC CELLS” (THE REGENTS OF THE UNIVERSITY OF CALIFORNIA, priority 2022, published 2025).

Experiments:
Raji tumor xenografts = experiment: Raji xenograft in NSG mice treated with inhibitor-preconditioned rituximab CAR-T cells; assay type: in vivo; conditions: for prolonged median survival compared to vehicle (DMSO)-treated rituximab CAR-T cells: two doses of preconditioned rituximab CAR-T cells
Procedure: FIG. 2A-C. […] (A) Tumor signal (in photons/sec/cm^2/sr) in individual animals as quantified by bioluminescence imaging. […] Statistical significance was determined by Mann-Whitney U test with Holm-Sidak correction for multiple comparisons. * p<0.05, n.s. not statistically significant. (B) Kaplan-Meier survival curve (top) and table of median survival period in days (bottom). (C) Frequency of human CD45+EGFRt+ cell in peripheral blood collected from mice on day 8 after first dose of T-cell infusion. Statistical significance was determined by two-tailed Student's t test with Sidak correction for multiple comparisons. * p<0.05, ** p<0.01.
In vivo studies. Six- to eight-week-old NOD/SCID/IL-2Rγ^null (NSG) mice were obtained from UCLA Department of Radiation and Oncology. The protocol was approved by UCLA Institutional Animal Care and Used Committee. […] Details of the dose and timing of tumor injection, T-cell injection, and tumor re-challenge are indicated in the text and figures. Tumor progression/regression was monitored with an IVIS Illumina III LT Imaging System (PerkinElmer). Blood samples were harvested via retro-orbital bleeding 3 days post T-cell injection and every 10-13 days thereafter. Mice were euthanized at the humane endpoint. Bone marrow, spleen and liver were collected after euthanasia. Tissues were ground and passed through a 100-μm filter followed by red-blood-cell lysis prior to flow-cytometry analysis.

rituximab CAR-T cells [1] = experiment: TNF-α production without antigen stimulation, intracellular flow cytometry, rituximab CAR-T cells; assay type: cell-based, human; conditions: vs vehicle (DMSO)
Excerpt: (§1) FIG. 1A-G. Pharmacological inhibition of PI3K/AKT pathway modulates antigen-independent CAR-T cell activation. (A) Table of pharmacological inhibitors used during ex vivo expansion of rituximab CAR-T cells (left). Simplified schematic of the PI3K/AKT signaling axis where black arrows represent activation (right). (B) Activation marker expression by CAR^+ T cells in the absence of antigen stimulation after 5 days of pharmacological modulation. Data bars indicate the means of technical triplicates±1 S.D. The bars in FIG. 1B represent data from, untreated, vehicle, CAL-101, AZD5363, Rapamycin, MYCi975, and Betulin, respectively, from left to right. (C) TNF-α production CAR^+ T cells in the absence of antigen stimulation as quantified by intracellular flow cytometry. Data bars indicate the means of technical triplicates±1 S.D. The bars in FIG. 1B and FIG. 1C represent data from, untreated, vehicle, CAL-101, AZD5363, Rapamycin, MYCi975, and Betulin, respectively, from left to right. (D) Proliferation of CAR^+ T cells stained with CellTrace Violet (CTV) dye was assayed after a 4-day culture in the absence of target cells or exogenous cytokines. […] Statistical significance in panels B, C, and D was determined by two-tailed Student's t test with Sidak correction for multiple comparisons. * p<0.05, ** p<0.01, *** p<0.001, n.s. not statistically significant. […]

rituximab CAR-T cells [2] = experiment: T-cell subtype distribution (CD45RO/CD62L staining), rituximab CAR-T cells; assay type: cell-based, human; conditions: 5 days of pharmacological modulation, vs vehicle
Excerpt: as §1
(§2) Antibody staining for flow-cytometry analysis. EGFRt expression was measured with biotinylated cetuximab (Eli Lilly; biotinylated in-house), followed by PE-conjugated streptavidin (Jackson ImmunoResearch #016-110-084). CAR expression was quantified by surface epitope staining using anti-Fc (Alexa Fluor 488, Jackson ImmunoResearch #709-546-098). Antigen-independent activation-marker expression of CAR-T cells was evaluated by antibody staining for CD137 (PE/Cy7, clone 4B4-1, BioLegend #309818), and PD-1 (FITC, clone EH12.2H7, BioLegend #329904) on Days 18 (i.e., 18 days after Dynabead addition and 11 days after Dynabead removal) and after 5-6 days of inhibitor culture (FIG. 1, FIG. 3). […]

Raji target cells = experiment: 24-hr lysis assay of inhibitor-treated rituximab CD20 CAR-T cells against Raji; assay type: cell-based; conditions: three E:T ratios, vs vehicle-treated
Excerpt: FIG. 1A-G. Pharmacological inhibition of PI3K/AKT pathway modulates antigen-independent CAR-T cell activation. (A) Table of pharmacological inhibitors used during ex vivo expansion of rituximab CAR-T cells (left). Simplified schematic of the PI3K/AKT signaling axis where black arrows represent activation (right). (B) Activation marker expression by CAR^+ T cells in the absence of antigen stimulation after 5 days of pharmacological modulation. Data bars indicate the means of technical triplicates±1 S.D. The bars in FIG. 1B represent data from, untreated, vehicle, CAL-101, AZD5363, Rapamycin, MYCi975, and Betulin, respectively, from left to right. (C) TNF-α production CAR^+ T cells in the absence of antigen stimulation as quantified by intracellular flow cytometry. Data bars indicate the means of technical triplicates±1 S.D. The bars in FIG. 1B and FIG. 1C represent data from, untreated, vehicle, CAL-101, AZD5363, Rapamycin, MYCi975, and Betulin, respectively, from left to right. (D) Proliferation of CAR^+ T cells stained with CellTrace Violet (CTV) dye was assayed after a 4-day culture in the absence of target cells or exogenous cytokines. Data shown in the histogram correspond to one of technical triplicates shown in the bar graph. The bars FIG. 1D represent data from, EGFRt, untreated, vehicle, CAL-101, AZD5363, Rapamycin, MYCi975, and Betulin, respectively, from left to right. (E) % distribution of T-cell subtypes in CAR^+ T cells after 5 days of pharmacological modulation. Data bars indicate the means of technical triplicates±1 S.D. (F) Rituximab CAR-T cell fold expansion after 6 days of inhibitor culture was tracked. […] Statistical significance in panels B, C, and D was determined by two-tailed Student's t test with Sidak correction for multiple comparisons. * p<0.05, ** p<0.01, *** p<0.001, n.s. not statistically significant.
Cytotoxicity assay with Raji cells. […] Remaining target cells were quantified by MACSQuant VYB flow cytometer 24-hr post co-incubation.

rituximab CAR-T cells [3] = experiment: Antigen-independent activation and exhaustion marker expression by flow cytometry, rituximab CAR-T cells; assay type: cell-based, human; conditions: 5 days inhibitor culture, no antigen, vs vehicle (DMSO), CAL-101 1 μM, AZD5363 1 μM
Excerpt: FIG. 1A-G. Pharmacological inhibition of PI3K/AKT pathway modulates antigen-independent CAR-T cell activation. (A) Table of pharmacological inhibitors used during ex vivo expansion of rituximab CAR-T cells (left). Simplified schematic of the PI3K/AKT signaling axis where black arrows represent activation (right). (B) Activation marker expression by CAR^+ T cells in the absence of antigen stimulation after 5 days of pharmacological modulation. Data bars indicate the means of technical triplicates±1 S.D. The bars in FIG. 1B represent data from, untreated, vehicle, CAL-101, AZD5363, Rapamycin, MYCi975, and Betulin, respectively, from left to right. (C) TNF-α production CAR^+ T cells in the absence of antigen stimulation as quantified by intracellular flow cytometry. Data bars indicate the means of technical triplicates±1 S.D. The bars in FIG. 1B and FIG. 1C represent data from, untreated, vehicle, CAL-101, AZD5363, Rapamycin, MYCi975, and Betulin, respectively, from left to right. (D) Proliferation of CAR^+ T cells stained with CellTrace Violet (CTV) dye was assayed after a 4-day culture in the absence of target cells or exogenous cytokines. Data shown in the histogram correspond to one of technical triplicates shown in the bar graph. The bars FIG. 1D represent data from, EGFRt, untreated, vehicle, CAL-101, AZD5363, Rapamycin, MYCi975, and Betulin, respectively, from left to right. (E) % distribution of T-cell subtypes in CAR^+ T cells after 5 days of pharmacological modulation. Data bars indicate the means of technical triplicates±1 S.D. (F) Rituximab CAR-T cell fold expansion after 6 days of inhibitor culture was tracked. T-cell fold expansion was normalized to the untreated control with each data point representing biological replicates collected from healthy donors. The bars FIG. 1F represent data from, EGFRt, vehicle, CAL-101, AZD5363, Rapamycin, MYCi975, and Betulin, respectively, from left to right. (G) A 24-hr lysis assay of CD20 CAR-T cells against Raji target cells at three effector-to-target (E:T) ratios. Data bars indicate the means of technical triplicates±1 S.D. Percent lysis was normalized to cell counts in target-only wells. […] In (B)-(F), results are representative two independent experiments using cells from of two heathy donors. Statistical significance in panels B, C, and D was determined by two-tailed Student's t test with Sidak correction for multiple comparisons. * p<0.05, ** p<0.01, *** p<0.001, n.s. not statistically significant. […]
as §2, with “3). T-cell subtype of CAR-T cells was evaluated by antibody staining for CD45RO (VioBlue®, clone REA611, Miltenyi #130-119-620) and CD62L (APC, clone DREG56, Invitrogen #17-0629-42) after 5-6 days of inhibitor culture (FIG. 1, FIG. 3).” for “3).”

rituximab CAR-T cells [4] = experiment: CellTrace Violet proliferation assay without target cells or exogenous cytokines, rituximab CAR-T cells; assay type: cell-based, human; conditions: 4-day culture, CTV dye, vs vehicle (DMSO)
Procedure: (D) Proliferation of CAR^+ T cells stained with CellTrace Violet (CTV) dye was assayed after a 4-day culture in the absence of target cells or exogenous cytokines. Data shown in the histogram correspond to one of technical triplicates shown in the bar graph. The bars FIG. 1D represent data from, EGFRt, untreated, vehicle, CAL-101, AZD5363, Rapamycin, MYCi975, and Betulin, respectively, from left to right. […] In (B)-(F), results are representative two independent experiments using cells from of two heathy donors. Statistical significance in panels B, C, and D was determined by two-tailed Student's t test with Sidak correction for multiple comparisons. * p<0.05, ** p<0.01, *** p<0.001, n.s. not statistically significant.
For inhibitor analysis, starting on Day 8, T cells were cultured in T-cell media with cytokine support in the presence of 1 μM PI3K8 isoform inhibitor (CAL-101, Apex Biotechnology #A300520)), 1 μM AKT inhibitor (AZD5363, Selleckchem #S8019), 100 nM mTORC1 inhibitor (Rapamycin, LC Laboratories #R-5000), 2 μM c-Myc inhibitor (MYCi975, MedChemExpress #HY-129601), SREBP inhibitor (Betulin, MilliporeSigma #92648), or DMSO as a vehicle control. Each inhibitor molecule was solubilized in DMSO.
Proliferation assay. […] Cultures were passaged as needed, and CTV dilution was analyzed on a MACSQuant VYB flow cytometer after a 4-day co-incubation.

Row | Compound | prolonged median survival compared to vehicle (DMSO)-treated rituximab CAR-T cells (Raji tumor xenografts; NSG mice, Raji i.v.) [folds] | TNF-α production in the absence of antigen stimulation (rituximab CAR-T cells [1]) | fraction of naïve and stem-cell memory T (Tn/scm) cells / T-cell differentiation (rituximab CAR-T cells [2]) | tumor outgrowth / tumor progression (Raji tumor xenografts; NSG mice, Raji i.v., preconditioned rituximab CAR-T cells, bioluminescence, vs vehicle control) | in vivo expansion of CAR-T cells (Raji tumor xenografts; human CD45+EGFRt+ cells in peripheral blood, day 8 after first T-cell dose, vs control) | lysis of Raji tumor cells (Raji target cells) | antigen-independent expression of activation and exhaustion markers (rituximab CAR-T cells [3]) | antigen-independent cell division (rituximab CAR-T cells [4])
1 | CO[C@H]1C[C@@H]2CC[C@@H](C)[C@@](O)(O2)C(=O)C(=O)N2CCCC[C@H]2C(=O)O[C@H]([C@H](C)C[C@@H]2CC[C@@H](O)[C@H](OC)C2)CC(=O)[C@H](C)/C=C(\C)[C@@H](O)[C@@H](OC)C(=O)[C@H](C)C[C@H](C)/C=C/C=C/C=C/1C [rapamycin, Rapamycin] | 1.8 | – | – | – | – | – | – | –
2 | AZD5363 | 1.6 | significantly reduced | preserved a greater fraction | delayed tumor outgrowth | significantly increased | clustered together | significantly reduced | significantly reduced
3 | CC[C@H](Nc1ncnc2[nH]cnc12)c1nc2cccc(F)c2c(=O)n1-c1ccccc1 [CAL-101] | 1.5 | – | – | – | – | – | – | –
